The source of these data is publication PMC10900215 (JACS Au, 2024).

For one experiment, the target named is T1, Cereblon (CRBN) (Homo sapiens, UniProt Q96SW2).
T1 construct: endogenous in cells; host or cells: MOLM-13
Description: Cellular thermal shift assay (CETSA) in MOLM-13, Cereblon. The class given is cell-based. As to conditions: MOLM-13, 54 °C.

The target of experiment [1] is T2, METTL3 (Homo sapiens, UniProt Q86U44).
T2 construct: METTL3–14 degradation up to 70% of the endogenous level; endogenous in cells; host or cells: MOLM-13, PC3, DU145
T2 sequence (Q86U44 2-580 limits assumed): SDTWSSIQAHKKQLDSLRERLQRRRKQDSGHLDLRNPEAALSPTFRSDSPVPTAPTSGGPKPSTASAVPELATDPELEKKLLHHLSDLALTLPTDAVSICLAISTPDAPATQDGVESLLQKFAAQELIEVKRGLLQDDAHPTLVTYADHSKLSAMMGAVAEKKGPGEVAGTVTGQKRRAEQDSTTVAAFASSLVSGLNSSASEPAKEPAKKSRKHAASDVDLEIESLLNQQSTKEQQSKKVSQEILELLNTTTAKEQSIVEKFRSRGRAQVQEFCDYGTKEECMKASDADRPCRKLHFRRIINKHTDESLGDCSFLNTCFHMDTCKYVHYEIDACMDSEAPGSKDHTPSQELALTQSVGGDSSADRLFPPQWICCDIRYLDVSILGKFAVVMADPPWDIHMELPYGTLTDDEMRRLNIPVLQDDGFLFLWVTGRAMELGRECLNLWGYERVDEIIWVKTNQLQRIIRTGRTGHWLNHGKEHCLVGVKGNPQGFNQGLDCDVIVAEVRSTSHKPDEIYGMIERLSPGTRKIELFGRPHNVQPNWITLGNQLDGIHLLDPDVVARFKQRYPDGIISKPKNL
T2 sequence (Q9HCE5 whole entry partner): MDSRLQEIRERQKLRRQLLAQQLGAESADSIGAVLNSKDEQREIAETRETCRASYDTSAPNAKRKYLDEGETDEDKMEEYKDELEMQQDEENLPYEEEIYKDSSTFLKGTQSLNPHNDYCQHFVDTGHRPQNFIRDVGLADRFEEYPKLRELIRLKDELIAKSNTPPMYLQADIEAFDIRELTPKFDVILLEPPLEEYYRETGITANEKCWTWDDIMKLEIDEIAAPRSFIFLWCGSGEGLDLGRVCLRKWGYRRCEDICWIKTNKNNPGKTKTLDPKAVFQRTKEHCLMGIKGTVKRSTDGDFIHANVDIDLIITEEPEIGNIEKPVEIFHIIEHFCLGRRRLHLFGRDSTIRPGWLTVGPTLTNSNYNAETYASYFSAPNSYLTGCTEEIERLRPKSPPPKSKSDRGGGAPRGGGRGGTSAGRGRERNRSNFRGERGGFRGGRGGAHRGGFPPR
Description: Cellular thermal shift assay (CETSA) in MOLM-13, METTL3. The class given is cell-based. As to conditions: MOLM-13, 54 °C. The method, then: One million of MOLM-13 cells were suspended in 100 μL of PBS (10010023, Thermo Fisher Scientific) containing 2× protease inhibitor cocktail (11697498001, Roche), for each condition tested. Cells were incubated with compounds or DMSO control (1% (v/v)) for 1 h at 37 °C. They were then heat treated at 54 °C in a thermoblock for 3 min, followed by cooling to room temperature (3 min). Next, samples were lysed by threefreeze–thaw cycles in liquid nitrogen and centrifuge at 16000 g for 30 min, 4 °C. Equal volumes of control and tested samples (12 μL) were analyzed by Western blot. The changes in the amount of METTL3 protein (after normalization for β-actin and/or GAPDH) were monitored by performing densitometry in Image Studio Lite software and analyzed in GraphPad Prism 9.

Experiment [2] addresses T3, METTL3 (Homo sapiens, UniProt Q86U44+Q96SW2).
T3 construct: Human full-length METTL3-METTL14 was expressed and purified as described above; Human full-length cereblon-DDB1 and 6xHis-CUL4A-6xHis-RBX1 were coexpressed; StrepII (N); GFP (N); TEV site (N); made in house; host or cells: baculovirus/Sf9 insect cells (METTL3-METTL14, cereblon-DDB1, CUL4A-RBX1)
Description: In vitro ubiquitination assay, METTL3. In kind it is biochemical. As to conditions: 2 μM compound, 30 °C, 2 h. The method, then:
(§1) For the cell-free in vitro ubiquitination of METTL3-METTL14 purified E1, E2, ubiquitin, CUL4A-RBX1, Cereblon-DDB1, and METTL3-METTL14 were used. Human full-length METTL3-METTL14 was expressed and purified as described above. […] Purified recombinant human UBE1 E1 (E-305–025) was purchased from R&D Systems, UbcH5a E2 (23–029) from Merck and ubiquitin (SBB-UP0013) from South Bay Bio. For the ubiquitination reaction, components were mixed to final concentrations of 0.06 μM UBE1, 1.96 μM UbcH5a, 39 μM ubiquitin, 0.33 μM CUL4A-RBX1, 0.33 μM Cereblon-DDB1, 0.5 μM METTL3-METTL14, and different concentrations of compound 14 or me-14 (0, 2, 8, or 32 μM) in reaction buffer (50 mM Tris-HCl pH 7.6, 5 mM MgCl2, 0.2 mM CaCl2, 1 mM DTT, 100 mM NaCl, 0.01% BSA, 0.01% Triton X-100). The final reaction volume was 15 μL. After the addition of 2 mM ATP (or the equal volume of water for the control without ATP), the reaction mixture was incubated for 2 h at 30 °C. […] The signals were quantified by using the Image Studio Lite software. To determine the percentage of ubiquitinated METTL3, the fraction of unmodified METTL3 was calculated by dividing the signal of the band assigned to unmodified METTL3 by the signal of the area containing both the unmodified and (poly)ubiquitinated METTL3 and normalizing to the control without ATP. […]

The test system of a further experiment is METTL14. Description: In vitro ubiquitination assay, METTL14. In kind it is biochemical, human. As to conditions: 2, 8, 32 μM compound, 30 °C, 2 h. Here is the method:
as §1

Experiment [3] relates to m6A/A levels in polyadenylated RNA. Description: UPLC-MS/MS quantification of m6A/A in polyadenylated RNA in MOLM-13. In kind it is cell-based, human. As to conditions: MOLM-13, 2 μM, 24 h. The method, then:
UPLC-MS/MS was performed as previously described.[28]
Briefly, MOLM-13 cells were seeded into 6 well plates at a density of 1 × 10^6 cells/mL in 2 mL of complete RPMI medium. Cells were treated with the indicated concentrations of compounds or DMSO control (final concentration 0.5% (v/v)) for 24 h. Following the incubation, cells were collected by centrifugation and washed once with PBS, and total RNA was extracted using 0.5 mL of GENEzol reagent according to the manufacturer’s instructions. The final volume of 50 μL of total RNA eluate was subjected to two rounds of purification using 25 μL of Sera-Mag magnetic oligo(dT) particles (Cytiva) per sample. The polyadenylated RNA was eluted with nuclease-free water in a final volume of 25 μL, and its concentration was determined using NanoDrop. One hundred nanograms of mRNA were digested to nucleosides and dephosphorylated in a one-pot reaction using 0.5 μL of nucleoside digestion mix (M0649S, NEB) in 25 μL of total reaction volume for 4 h at 37 °C. The samples were used for UPLC-MS/MS analysis without further purification steps. The data were plotted by using GraphPad Prism 9.

T3 sequence (Q86U44 whole entry): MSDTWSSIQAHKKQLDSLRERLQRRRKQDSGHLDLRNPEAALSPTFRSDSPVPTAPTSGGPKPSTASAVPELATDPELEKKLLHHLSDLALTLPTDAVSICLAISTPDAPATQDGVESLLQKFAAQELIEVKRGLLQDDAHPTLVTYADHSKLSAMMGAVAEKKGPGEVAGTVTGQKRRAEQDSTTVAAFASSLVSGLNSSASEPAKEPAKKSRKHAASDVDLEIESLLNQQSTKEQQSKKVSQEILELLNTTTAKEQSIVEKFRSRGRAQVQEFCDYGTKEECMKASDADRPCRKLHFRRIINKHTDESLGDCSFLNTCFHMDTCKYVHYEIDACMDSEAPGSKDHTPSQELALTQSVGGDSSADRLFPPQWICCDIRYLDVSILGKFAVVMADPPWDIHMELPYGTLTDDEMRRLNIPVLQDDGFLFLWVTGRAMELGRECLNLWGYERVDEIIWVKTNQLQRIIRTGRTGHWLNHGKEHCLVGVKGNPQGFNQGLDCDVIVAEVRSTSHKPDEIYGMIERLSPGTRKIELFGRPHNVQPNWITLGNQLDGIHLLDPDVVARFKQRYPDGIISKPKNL
T3 sequence (Q9HCE5 whole entry partner): as the sequence (Q9HCE5 whole entry partner) above
T3 sequence (Q96SW2 whole entry): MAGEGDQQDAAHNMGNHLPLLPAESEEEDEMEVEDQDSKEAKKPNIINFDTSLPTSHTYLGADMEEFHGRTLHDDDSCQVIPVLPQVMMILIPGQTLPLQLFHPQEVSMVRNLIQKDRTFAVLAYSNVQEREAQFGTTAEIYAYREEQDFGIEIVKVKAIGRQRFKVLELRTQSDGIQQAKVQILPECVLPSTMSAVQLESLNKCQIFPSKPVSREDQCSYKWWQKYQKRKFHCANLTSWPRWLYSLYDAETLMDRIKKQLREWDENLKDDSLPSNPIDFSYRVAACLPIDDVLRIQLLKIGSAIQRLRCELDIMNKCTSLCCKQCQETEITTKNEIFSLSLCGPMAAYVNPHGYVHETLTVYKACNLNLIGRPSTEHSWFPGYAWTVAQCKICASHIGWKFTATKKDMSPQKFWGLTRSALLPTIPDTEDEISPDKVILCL
T3 sequence (Q16531 whole entry partner): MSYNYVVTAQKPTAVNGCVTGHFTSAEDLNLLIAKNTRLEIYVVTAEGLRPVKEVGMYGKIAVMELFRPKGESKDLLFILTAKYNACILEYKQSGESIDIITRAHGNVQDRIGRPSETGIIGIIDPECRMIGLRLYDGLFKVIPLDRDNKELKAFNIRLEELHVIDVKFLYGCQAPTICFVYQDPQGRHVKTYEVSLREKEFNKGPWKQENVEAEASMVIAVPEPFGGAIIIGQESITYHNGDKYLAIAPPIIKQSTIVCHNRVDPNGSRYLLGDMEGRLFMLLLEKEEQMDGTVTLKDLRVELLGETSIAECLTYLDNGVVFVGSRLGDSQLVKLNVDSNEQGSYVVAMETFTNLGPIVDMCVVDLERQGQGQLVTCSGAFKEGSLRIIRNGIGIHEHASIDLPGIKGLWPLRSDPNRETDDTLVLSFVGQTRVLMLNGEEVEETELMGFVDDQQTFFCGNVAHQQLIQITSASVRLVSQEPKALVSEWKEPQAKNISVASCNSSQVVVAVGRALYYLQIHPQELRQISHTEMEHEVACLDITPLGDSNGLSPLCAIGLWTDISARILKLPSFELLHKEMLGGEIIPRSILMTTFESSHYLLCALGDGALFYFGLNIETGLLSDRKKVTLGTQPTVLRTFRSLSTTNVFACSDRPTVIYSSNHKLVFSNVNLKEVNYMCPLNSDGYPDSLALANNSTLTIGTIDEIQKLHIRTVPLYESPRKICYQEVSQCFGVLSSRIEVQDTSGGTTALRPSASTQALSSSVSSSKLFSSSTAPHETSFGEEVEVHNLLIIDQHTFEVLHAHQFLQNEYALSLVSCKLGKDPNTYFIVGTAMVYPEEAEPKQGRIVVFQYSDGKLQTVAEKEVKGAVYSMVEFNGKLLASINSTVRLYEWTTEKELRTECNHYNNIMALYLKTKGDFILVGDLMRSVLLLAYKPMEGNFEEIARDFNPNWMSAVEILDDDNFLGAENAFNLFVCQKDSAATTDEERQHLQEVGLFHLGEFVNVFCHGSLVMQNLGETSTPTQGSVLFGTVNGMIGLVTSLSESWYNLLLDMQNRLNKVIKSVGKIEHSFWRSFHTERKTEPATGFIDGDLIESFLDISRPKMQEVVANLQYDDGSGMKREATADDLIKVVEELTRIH
T3 sequence (Q13619 whole entry partner): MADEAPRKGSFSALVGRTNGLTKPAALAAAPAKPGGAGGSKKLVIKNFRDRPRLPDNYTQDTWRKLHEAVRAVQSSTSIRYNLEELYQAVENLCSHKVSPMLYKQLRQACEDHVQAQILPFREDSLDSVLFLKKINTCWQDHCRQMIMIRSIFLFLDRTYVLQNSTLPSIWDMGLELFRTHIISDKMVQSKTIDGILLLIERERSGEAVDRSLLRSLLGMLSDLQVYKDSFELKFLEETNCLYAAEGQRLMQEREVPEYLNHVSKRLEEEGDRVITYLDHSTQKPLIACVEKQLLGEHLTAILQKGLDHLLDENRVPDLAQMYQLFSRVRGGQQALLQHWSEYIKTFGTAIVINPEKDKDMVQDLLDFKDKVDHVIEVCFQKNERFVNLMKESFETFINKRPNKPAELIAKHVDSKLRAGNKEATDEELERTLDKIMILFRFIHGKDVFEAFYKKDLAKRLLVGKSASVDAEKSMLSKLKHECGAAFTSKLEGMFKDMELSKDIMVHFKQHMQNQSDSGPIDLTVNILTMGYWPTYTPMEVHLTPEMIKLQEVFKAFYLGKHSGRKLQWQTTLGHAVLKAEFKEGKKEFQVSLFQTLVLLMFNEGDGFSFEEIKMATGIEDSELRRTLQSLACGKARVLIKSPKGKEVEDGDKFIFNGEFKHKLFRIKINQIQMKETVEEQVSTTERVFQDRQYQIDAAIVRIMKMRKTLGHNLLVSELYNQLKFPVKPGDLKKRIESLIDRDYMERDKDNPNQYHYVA
T3 sequence (P62877 whole entry partner): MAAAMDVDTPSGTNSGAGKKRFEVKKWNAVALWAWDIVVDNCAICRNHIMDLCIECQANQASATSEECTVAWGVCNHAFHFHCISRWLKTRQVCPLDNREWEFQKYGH
T1 sequence (Q96SW2 whole entry): as the sequence (Q96SW2 whole entry) above

Turning to `CC1(C)CCN(Cc2cc(F)c(N3CC(=O)NC4(CCN(c5cc(NCc6cccc(CNC(=O)CCCNc7cccc8c7C(=O)N(C7CCC(=O)NC7=O)C8=O)c6)ncn5)CC4)C3)cc2F)CC1` (centres unmarked) [Compound 14], on Cereblon (CRBN), the “stabilization of Cereblon (CETSA)” value is reported as “visible”. Moreover, on METTL3 [1], the “stabilization of METTL3 (CETSA)” value is recorded as “stabilize METTL3 in a concentration-dependent manner”. The “ubiquitination level of METTL3” value at METTL3 [2] was approximately 40%. Also, in the experiment with METTL14, the “ubiquitination of METTL14” value was “not as pronounced”.
On to `CC1(C)CCN(Cc2cc(F)c(N3CC(=O)NC4(CCN(c5cc(NCC6CCN(C(=O)CCCNc7cccc8c7C(=O)N(C7CCC(=O)NC7=O)C8=O)CC6)ncn5)CC4)C3)cc2F)CC1` (centres unmarked) [Compound 22], for which, in experiment [3], the m6A/A levels entry is listed as “slight reduction”.
